{"source": "patent US7285703B2", "about": "“Plant like starches and the method of making them in hosts” (BASF Plant Science GmbH, priority 1998, dated 2007)", "key": {"[1]": {"target": "T1, maize starch synthase SSI-1 (STSI-1), full length SSI (583 amino acids), N-terminus CVAELSREGP (SEQ ID NO:64) (Zea mays, UniProt O49064)", "T1 sequence (O49064 with tags, fused parts or gaps)": "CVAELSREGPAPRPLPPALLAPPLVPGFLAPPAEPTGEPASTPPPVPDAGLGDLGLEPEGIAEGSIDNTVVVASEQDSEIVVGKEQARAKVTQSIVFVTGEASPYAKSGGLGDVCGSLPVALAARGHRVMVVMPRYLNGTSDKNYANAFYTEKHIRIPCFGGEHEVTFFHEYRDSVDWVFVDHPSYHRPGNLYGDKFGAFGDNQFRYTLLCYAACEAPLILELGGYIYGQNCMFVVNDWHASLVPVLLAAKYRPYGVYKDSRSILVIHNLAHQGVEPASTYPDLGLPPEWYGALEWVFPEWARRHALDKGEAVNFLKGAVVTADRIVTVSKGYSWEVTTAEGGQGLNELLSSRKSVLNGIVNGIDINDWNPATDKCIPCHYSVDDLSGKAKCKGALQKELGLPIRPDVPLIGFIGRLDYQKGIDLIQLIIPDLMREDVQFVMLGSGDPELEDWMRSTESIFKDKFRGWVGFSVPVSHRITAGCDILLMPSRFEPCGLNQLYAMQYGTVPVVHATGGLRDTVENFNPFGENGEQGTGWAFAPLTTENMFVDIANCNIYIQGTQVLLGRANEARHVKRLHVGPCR", "assay": "ADPGlc kinetics of starch synthase SSI-1", "type": "biochemical", "settings": "5 mg/ml amylopectin as primer, 37° C.", "excerpt": "FIG. 58. SSI-1, SSI-2, and SSI-3 construct design. Three forms of SSI were constructed in the pET expression (see Methods). pExs10a encodes SSI-1, the full length maize SSI (583 amino acids) which has the N-terminal sequence CVAELSREGP (SEQ ID NO:64). pExs8 encodes a truncated SSI, SSI-2, with amino acids # 8-52 deleted from the N-terminus of SSI-1 and which has the N-terminal sequence CVAELSR/DLG (SEQ ID NO:65). pExs1d encodes the most truncated form of SSI, SSI-3, with the first 93 amino acids deleted from SSI-1 and which has the N-terminal sequence SIVFVTGE (SEQ ID NO:66). A depiction of the waxygene, encoding GBSS, which has the N-terminal sequence ASAGMNW (SEQ ID NO:67), is also included for comparison. The amino acid motif KS/TGGL (SEQ ID NO:9), the putative binding site for ADGPGlc, in indicated by the triangles. The KS/TGGL (SEQ ID NO:9) motif is located 18 amino acids from the N-terminus in GBSS, while the motif is 106 amino acids from the N-terminus in maize SSI. Drawing not to scale.\n5 mL of supernatant were used to assay STS and SBE activities as previously described (Preiss) with minor modification. […] The unincorporated [^14C]-ADPGlc was separated with Dowex anion exchange column (200-400 mesh, Sigma Chemical Co.). […] SBE activity was determined by phosphorylase stimulation assay. One unit of activity is defined as 1 mmol Glc incorporated into the a-glucan per min at. […]"}, "[2]": {"target": "maize starch synthase SSIIa-2, N-terminally truncated SSIIa, first 176 amino acids deleted (493 amino acids), N-terminus GENVMNVI (SEQ ID NO:1) (Zea mays, UniProt A0A804PX87)", "sequence (A0A804PX87 entry or part of it, stated change not applied)": "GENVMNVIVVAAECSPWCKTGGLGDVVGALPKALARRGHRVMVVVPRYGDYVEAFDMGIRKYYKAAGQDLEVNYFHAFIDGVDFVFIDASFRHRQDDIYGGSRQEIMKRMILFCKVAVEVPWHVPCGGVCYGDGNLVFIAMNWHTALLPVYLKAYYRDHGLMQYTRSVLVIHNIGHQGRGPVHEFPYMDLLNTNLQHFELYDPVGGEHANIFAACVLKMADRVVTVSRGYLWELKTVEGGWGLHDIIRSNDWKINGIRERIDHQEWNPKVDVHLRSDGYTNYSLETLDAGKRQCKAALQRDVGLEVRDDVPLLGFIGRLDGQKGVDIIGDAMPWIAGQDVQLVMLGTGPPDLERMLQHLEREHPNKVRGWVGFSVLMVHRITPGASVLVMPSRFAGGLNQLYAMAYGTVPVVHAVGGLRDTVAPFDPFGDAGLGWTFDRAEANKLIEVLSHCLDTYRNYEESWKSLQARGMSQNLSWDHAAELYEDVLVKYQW", "assay": "ADPGlc kinetics of starch synthase SSIIa-2", "type": "biochemical", "settings": "for Vmax (ADPGlc kinetics): amylopectin as primer", "excerpt": "FIG. 59. SSIIa-1 and SSIIa-2 construct diagram. Two forms of SSIIa were constructed in the pET expression system. pExs3c encodes SSIIa-1, the putative full length maize SSIIa which has the N-terminal sequence AEAEAGGK (SEQ ID NO:68). […] A depiction of the waxy gene, encoding GBSS which has the N-terminal sequence ASAGMNVV (SEQ ID NO:67), is also included for comparison. The amino acid motif KTGGL (SEQ ID NO:10), the putative binding site for ADPGlc, is indicated by the triangles. The KTGGL (SEQ ID NO:10) motif is located 18 amino acids from the N-terminus in GBSS, while the motif is 194 amino acids from the N-terminus in maize SSIIa.\n5 mL of supernatant were used to assay STS and SBE activities as previously described (Preiss) with minor modification. […] […] The unincorporated [^14C]-ADPGlc was separated with Dowex anion exchange column (200-400 mesh, Sigma Chemical Co.). One unit of activity is defined as 1 nmol Glc incorporated into the a-glucan per min at 25° C. SBE activity was determined by phosphorylase stimulation assay. One unit of activity is defined as 1 mmol Glc incorporated into the a-glucan per min at. 30° C.\nFor the recombinant SS purification, the cell pellet was resuspended in sonication buffer (50 mM Tris-acetate, pH 7.5, 10 mM EDTA, and 5 mMDTT; 7 ml buffer per gram of cell mass), and cells were lysed using a Fisher 550 Sonic Dismembrator with 5×1 min. bursts with 30 sec. intervals. The homogenate was centrifuged at 9600 g for 30 minutes. SSI in the supernatant was then precipitated by slowly adding neutralized saturated ammonium sulfate to 40% saturation. After stirring on ice for an additional 50 minutes, proteins were collected by centrifugation at 12500 g for 45 minutes. The protein pellet was then redissolved in buffer A (50 mM Tris, pH 5.5, 1 mM EDTA, and 5 mM DTT) containing 0.1 M KCl and dialyzed against the same buffer, with one change of buffer. After dialysis, the sample was centrifuged at 13000 g for 20 minutes to remove insoluble materials. The resulting supernatant was loaded onto […] pre-equilibrated with dialysis buffer, and the flow through was collected. The column was washed with 10 column volumes of buffer a containing 0.1 M KCl, and then with buffer A containing 0.5 M KCl and 0.5 M maltose, collecting fractions during both washes. The active fractions were pooled and dialyzed overnight against buffer A, with one change of buffer. The next day, the amylase column sample was filtered and applied to a mono Q 5/5 FPLC column (Pharmacia). After washing with buffer A, a 20 ml 0-0,4 M KCl gradient was employed. The active fractions were electrophoresed on an 8% SDS-PAGE gel (31) to determine the purity of SSI in those fractions; the fractions which were apparently homogeneous were pooled and concentrated using a Centricon-30 spin column (Amicon)."}}, "data": [{"smiles": "Nc1ncnc2c1ncn2[C@@H]1O[C@H](COP(=O)(O)OP(=O)(O)O[C@H]2O[C@H](CO)[C@@H](O)[C@H](O)[C@H]2O)[C@@H](O)[C@H]1O", "note": "[ADPGlc, adenosine diphosphate glucose]", "values": [{"measurement": "Vm (ADPGlc kinetics)", "setting": "[1]; +citrate", "value": "18.0 ± 0.5", "unit": "μmol/min/mg protein"}, {"measurement": "Vm (ADPGlc kinetics)", "setting": "[1]; −citrate", "value": "6.38 ± 0.88", "unit": "μmol/min/mg protein"}, {"measurement": "Km for ADPGlc compared with SSIIa-1", "setting": "[2]; all assay conditions used except glycogen primer at 27° C.", "value": "lower Km for ADPGlc"}, {"measurement": "Vmax (ADPGlc kinetics)", "setting": "[2]; +citrate, 27° C.", "value": "4.83 ± 0.42", "unit": "μmol/min/mg protein"}, {"measurement": "Vmax (ADPGlc kinetics)", "setting": "[2]; +citrate, 37° C.", "value": "11.4 ± 0.6", "unit": "μmol/min/mg protein"}, {"measurement": "Vmax (ADPGlc kinetics)", "setting": "[2]; −citrate, 27° C.", "value": "4.87 ± 0.25", "unit": "μmol/min/mg protein"}, {"measurement": "Vmax (ADPGlc kinetics)", "setting": "[2]; −citrate, 37° C.", "value": "7.86 ± 0.53", "unit": "μmol/min/mg protein"}, {"measurement": "effect of raising temperature on Km for ADPGlc", "setting": "[2]; from 27° C. to 37° C.", "value": "not affected by raising temperature"}]}]}
